According to US12091402B2 (Avilar Therapeutics, Inc., priority 2021, dated 2024):
pKd: −log10 of the molar value. Where a SMILES comes first, the peptide text is derived from it. Bridges are numbered along the chain shown (N, C = ends). The star is where a group is joined. X3 = O=C(CCOCC(COCCC(=O)NCCOCCOCCOCCOC[C@@]12CO[C@@H](O1)[C@H](Nc1nc(Cl)ns1)[C@@H](O)[C@H]2O)NC(=O)CCCCCn1cc(CCCC(=O)*)nn1)NCCOCCOCCOCCOC[C@@]12CO[C@@H](O1)[C@H](Nc1nc(Cl)ns1)[C@@H](O)[C@H]2O; X4 = O=C(CCCc1cn(C[C@H]2OC[C@H](Nc3nccc(C(F)(F)F)n3)[C@@H](O)[C@H]2O)nn1)*; PEG4 = NCCOCCOCCOCCOCCC(=O)O

Target: T1, ASGPR (Homo sapiens, UniProt P07306)
T1 sequence (P07306 1-291): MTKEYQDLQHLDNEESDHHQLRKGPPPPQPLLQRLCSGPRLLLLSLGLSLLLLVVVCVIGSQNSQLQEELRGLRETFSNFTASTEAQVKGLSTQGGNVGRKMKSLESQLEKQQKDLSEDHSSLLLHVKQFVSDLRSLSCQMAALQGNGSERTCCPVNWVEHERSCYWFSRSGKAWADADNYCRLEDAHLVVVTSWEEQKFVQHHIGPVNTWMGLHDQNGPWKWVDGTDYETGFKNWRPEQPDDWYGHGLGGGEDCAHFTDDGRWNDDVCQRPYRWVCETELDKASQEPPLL
Assay: Affinity to ASGPR by surface plasmon resonance (SPR)

Structure (SMILES) | pKd
OC[C@H]1OC[C@H](Nc2cc(C(F)(F)F)nc(Cl)n2)[C@@H](O)[C@H]1O [A78, (2R,3R,4R,5S)-5-((2-chloro-6-(trifluoromethyl)pyrimidin-4-yl)amino)-2-(hydroxymethyl)tetrahydro-2H-pyran-3,4-diol] | < 4.70
N#Cc1nc(N[C@H]2CO[C@H](CO)[C@H](O)[C@@H]2O)cc(C(F)(F)F)n1 [A79, 4-(((3S,4R,5R,6R)-4,5-dihydroxy-6-(hydroxymethyl)tetrahydro-2H-pyran-3-yl)amino)-6-(trifluoromethyl)pyrimidine-2-carbonitrile] | < 4.70
OC[C@H]1OC[C@H](Nc2ccc(F)c(C(F)(F)F)n2)[C@@H](O)[C@H]1O [A82, (2R,3R,4R,5S)-5-((5-fluoro-6-(trifluoromethyl)pyridin-2-yl)amino)-2-(hydroxymethyl)tetrahydro-2H-pyran-3,4-diol] | 5.00 to 6.00
[N-]=[N+]=NC[C@H]1OC[C@H](Nc2cncc(C(F)(F)F)n2)[C@@H](O)[C@H]1O [A86, (2R,3R,4R,5S)-2-(azidomethyl)-5-((6-(trifluoromethyl)pyrazin-2-yl)amino)tetrahydro-2H-pyran-3,4-diol] | > 6.00
OC[C@@]12CO[C@@H](O1)[C@H](Nc1cccc(C(F)(F)F)n1)[C@@H](O)[C@H]2O [A87, (1S,2R,3R,4R,5S)-1-(hydroxymethyl)-4-((6-(trifluoromethyl)pyridin-2-yl)amino)-6,8-dioxabicyclo[3.2.1]octane-2,3-diol] | > 6.00
NC[C@H]1OC[C@H](Nc2cncc(C(F)(F)F)n2)[C@@H](O)[C@H]1O [A89, (2R,3R,4R,5S)-2-(aminomethyl)-5-((6-(trifluoromethyl)pyrazin-2-yl)amino)tetrahydro-2H-pyran-3,4-diol] | > 6.00
CC(=O)NC[C@H]1OC[C@H](Nc2cncc(C(F)(F)F)n2)[C@@H](O)[C@H]1O [A90, N-(((2R,3R,4R,5S)-3,4-dihydroxy-5-((6-(trifluoromethyl)pyrazin-2-yl)amino)tetrahydro-2H-pyran-2-yl)methyl)acetamide] | > 6.00
O[C@@H]1[C@H](O)[C@@H](Nc2nccc(C(F)(F)F)n2)CO[C@@H]1c1nc2ccc(Br)cc2[nH]1 [A94, (2R,3R,4R,5S)-2-(6-bromo-1H-benzo[d]imidazol-2-yl)-5-((4-(trifluoromethyl)pyrimidin-2-yl)amino)tetrahydro-2H-pyran-3,4-diol] | < 4.70
O[C@@H]1[C@H](O)[C@@H](Nc2cncc(C(F)(F)F)n2)CO[C@@H]1CNc1ccccc1 [A95, (2R,3R,4R,5S)-2-((phenylamino)methyl)-5-((6-(trifluoromethyl)pyrazin-2-yl)amino)tetrahydro-2H-pyran-3,4-diol] | 5.00 to 6.00
O[C@@H]1[C@H](O)[C@@H](Nc2cncc(C(F)(F)F)n2)CO[C@@H]1CN1CCCCC1 [A96, (2R,3R,4R,5S)-2-(piperidin-1-ylmethyl)-5-((6-(trifluoromethyl)pyrazin-2-yl)amino)tetrahydro-2H-pyran-3,4-diol] | 5.00 to 6.00
CN(C[C@H]1OC[C@H](Nc2cncc(C(F)(F)F)n2)[C@@H](O)[C@H]1O)c1ccccc1 [A99, (2R,3R,4R,5S)-2-((methyl(phenyl)amino)methyl)-5-((6-(trifluoromethyl)pyrazin-2-yl)amino)tetrahydro-2H-pyran-3,4-diol] | > 6.00
OC[C@H]1OC[C@H](Nc2nccnc2C(F)(F)F)[C@@H](O)[C@H]1O [A101, (2R,3R,4R,5S)-2-(hydroxymethyl)-5-((3-(trifluoromethyl)pyrazin-2-yl)amino)tetrahydro-2H-pyran-3,4-diol] | 5.00 to 6.00
O=C(NC[C@H]1OC[C@H](Nc2cncc(C(F)(F)F)n2)[C@@H](O)[C@H]1O)C12CC(C1)C2 [A102, N-(((2R,3R,4R,5S)-3,4-dihydroxy-5-((6-(trifluoromethyl)pyrazin-2-yl)amino)tetrahydro-2H-pyran-2-yl)methyl)bicyclo[1.1.1]pentane-1-carboxamide] | > 6.00
COCCO[C@@H]1O[C@H](CO)[C@H](O)[C@H](O)[C@H]1NC(=O)C(F)(F)F [A104, N-((2R,3R,4R,5R,6R)-4,5-dihydroxy-6-(hydroxymethyl)-2-(2-methoxyethoxy)tetrahydro-2H-pyran-3-yl)-2,2,2-trifluoroacetamide] | 5.00 to 6.00
COCCO[C@@H]1O[C@H](CO)[C@H](O)[C@H](O)[C@H]1Nc1cncc(C(F)(F)F)n1 [A105, (2R,3R,4R,5R,6R)-2-(hydroxymethyl)-6-(2-methoxyethoxy)-5-((6-(trifluoromethyl)pyrazin-2-yl)amino)tetrahydro-2H-pyran-3,4-diol] | 5.00 to 6.00
COc1cccc(N(C)C[C@H]2OC[C@H](Nc3cncc(C(F)(F)F)n3)[C@@H](O)[C@H]2O)c1 [A106, (2R,3R,4R,5S)-2-(((3-methoxyphenyl)(methyl)amino)methyl)-5-((6-(trifluoromethyl)pyrazin-2-yl)amino)tetrahydro-2H-pyran-3,4-diol] | > 6.00
O=C(NC[C@H]1OC[C@H](Nc2cncc(C(F)(F)F)n2)[C@@H](O)[C@H]1O)[C@H]1C[C@H]1F [A108, (1R,2R)—N-(((2R,3R,4R,5S)-3,4-dihydroxy-5-((6-(trifluoromethyl)pyrazin-2-yl)amino)tetrahydro-2H-pyran-2-yl)methyl)-2-fluorocyclopropane-1-carboxamide] | < 4.70
CCOC(=O)c1cnc(C(F)(F)F)nc1N[C@H]1[C@H]2OC[C@](CO)(O2)[C@H](O)[C@@H]1O [A110, ethyl 4-(((1S,2R,3R,4R,5S)-2,3-dihydroxy-1-(hydroxymethyl)-6,8-dioxabicyclo[3.2.1]octan-4-yl)amino)-2-(trifluoromethyl)pyrimidine-5-carboxylate] | 5.00 to 6.00
CCOC(=O)c1ccc(Cl)nc1N[C@H]1[C@H]2OC[C@](CO)(O2)[C@H](O)[C@@H]1O [A112, ethyl 6-chloro-2-(((1S,2R,3R,4R,5S)-2,3-dihydroxy-1-(hydroxymethyl)-6,8-dioxabicyclo[3.2.1]octan-4-yl)amino)nicotinate] | 5.00 to 6.00
OC[C@@]12CO[C@@H](O1)[C@H](Nc1nc(Cl)ncc1C(F)(F)F)[C@@H](O)[C@H]2O [A114, (1S,2R,3R,4R,5S)-4-((2-chloro-5-(trifluoromethyl)pyrimidin-4-yl)amino)-1-(hydroxymethyl)-6,8-dioxabicyclo[3.2.1]octane-2,3-diol] | > 6.00
OC[C@@]12CO[C@@H](O1)[C@H](Nc1ncc(C(F)(F)F)c(Cl)n1)[C@@H](O)[C@H]2O [A115, (1S,2R,3R,4R,5S)-4-((4-chloro-5-(trifluoromethyl)pyrimidin-2-yl)amino)-1-(hydroxymethyl)-6,8-dioxabicyclo[3.2.1]octane-2,3-diol] | > 6.00
O[C@@H]1[C@H](O)[C@@H](Nc2cncc(C(F)(F)F)n2)CO[C@@H]1CNc1cnccn1 [A122] | > 6.00
CN(C)C[C@H]1OC[C@H](Nc2cncc(C(F)(F)F)n2)[C@@H](O)[C@H]1O [A126] | > 6.00
O=C(CCOCC(COCCC(=O)NCCOCCOCCOCCOC[C@H]1OC[C@H](Nc2nccc(C(F)(F)F)n2)[C@@H](O)[C@H]1O)NC(=O)COCCOCCOCC(=O)NCCN1C(=O)C=CC1=O)NCCOCCOCCOCCOC[C@H]1OC[C@H](Nc2nccc(C(F)(F)F)n2)[C@@H](O)[C@H]1O [A130] | > 7.00
NC(COCCC(=O)NCCOCCOCCOCCOC[C@H]1OC[C@H](Nc2cncc(C(F)(F)F)n2)[C@@H](O)[C@H]1O)COCCC(=O)NCCOCCOCCOCCOC[C@H]1OC[C@H](Nc2cncc(C(F)(F)F)n2)[C@@H](O)[C@H]1O [A131] | > 7.00
O=C(O)CNC(COCCC(=O)NCCOCCOCCOCCOC[C@H]1OC[C@H](Nc2nccc(C(F)(F)F)n2)[C@@H](O)[C@H]1O)COCCC(=O)NCCOCCOCCOCCOC[C@H]1OC[C@H](Nc2nccc(C(F)(F)F)n2)[C@@H](O)[C@H]1O [A132] | > 7.00
CC(C)C[C@@H]1NC(=O)[C@@H](NC(=O)[C@@H](NC(=O)[C@H](CCC(N)=O)NC(=O)[C@H](Cc2c[nH]cn2)NC(=O)CCOCCOCCOCCOCCNC(=O)CCCc2cn(C[C@H]3OC[C@H](Nc4nccc(C(F)(F)F)n4)[C@@H](O)[C@H]3O)nn2)C(C)C)CSSC[C@@H](C(=O)N[C@@H](Cc2ccccc2)C(=O)N[C@@H](CO)C(=O)N[C@H](C(N)=O)[C@@H](C)O)NC(=O)[C@H](C(C)C)NC(=O)[C@@H]2CCCN2C(=O)[C@H](CCCNC(=N)N)NC(=O)CNC(=O)[C@H](CCCNC(=N)N)NC(=O)[C@H](Cc2ccc(O)cc2)NC(=O)[C@H](CO)NC1=O [Compound 18] ({X4-PEG4}-HQVCLSYRGRPVCFST-NH2; disulfide 4-13) | 6.00 to 6.30
CC(C)C[C@@H]1NC(=O)[C@@H](NC(=O)[C@@H](NC(=O)[C@H](CCC(N)=O)NC(=O)[C@H](Cc2c[nH]cn2)NC(=O)CCOCCOCCOCCOCCNC(=O)CCCc2cn(CCCCCC(=O)NC(COCCC(=O)NCCOCCOCCOCCOC[C@@]34CO[C@@H](O3)[C@H](Nc3nc(Cl)ns3)[C@@H](O)[C@H]4O)COCCC(=O)NCCOCCOCCOCCOC[C@@]34CO[C@@H](O3)[C@H](Nc3nc(Cl)ns3)[C@@H](O)[C@H]4O)nn2)C(C)C)CSSC[C@@H](C(=O)N[C@@H](Cc2ccccc2)C(=O)N[C@@H](CO)C(=O)N[C@H](C(N)=O)[C@@H](C)O)NC(=O)[C@H](C(C)C)NC(=O)[C@@H]2CCCN2C(=O)[C@H](CCCNC(=N)N)NC(=O)CNC(=O)[C@H](CCCNC(=N)N)NC(=O)[C@H](Cc2ccc(O)cc2)NC(=O)[C@H](CO)NC1=O [Compound 19] ({X3-PEG4}-HQVCLSYRGRPVCFST-NH2; disulfide 4-13) | > 7.00
O=[N+]([O-])c1ccc(NCCOCCOCCOCCOC[C@H]2OC[C@@H](Nc3nc(Cl)ns3)[C@@H](O)[C@H]2O)c([N+](=O)[O-])c1 [Compound 24, (2R,3R,4R,5R)-5-((3-chloro-1,2,4-thiadiazol-5-yl)amino)-2-(13-((2,4-dinitrophenyl)amino)-2,5,8,11-tetraoxatridecyl)tetrahydro-2H-pyran-3,4-diol] | > 7.00
